According to article PMC4585333, “Novel Regulator of Acylated Ghrelin, CF801, Reduces Weight Gain, Rebound Feeding after a Fast, and Adiposity in Mice” (Frontiers in Endocrinology, 2015):
Entries after “also recorded” stand apart in the source; their conditions may differ.

Legend:
[1] = target: T1, mouse GOAT (mGOAT) (Mus musculus, UniProt P0C7A3); assay: Fluorescence-based GOAT activity assay, mouse GOAT; assay type: biochemical; conditions: concentrations up to 10 μM; Sf9 membranes, 1.5 μM GSSFLCAcDan, 500 μM octanoyl-CoA, 30 min pre-incubation, 1 h room temperature, pH 7.0, HPLC fluorescence, triplicate; F(3,8) = 0.139, p > 0.05
T1 construct: made in house; host or cells: Sf9 insect cells (membrane fraction)
T1 sequence (P0C7A3 1-435): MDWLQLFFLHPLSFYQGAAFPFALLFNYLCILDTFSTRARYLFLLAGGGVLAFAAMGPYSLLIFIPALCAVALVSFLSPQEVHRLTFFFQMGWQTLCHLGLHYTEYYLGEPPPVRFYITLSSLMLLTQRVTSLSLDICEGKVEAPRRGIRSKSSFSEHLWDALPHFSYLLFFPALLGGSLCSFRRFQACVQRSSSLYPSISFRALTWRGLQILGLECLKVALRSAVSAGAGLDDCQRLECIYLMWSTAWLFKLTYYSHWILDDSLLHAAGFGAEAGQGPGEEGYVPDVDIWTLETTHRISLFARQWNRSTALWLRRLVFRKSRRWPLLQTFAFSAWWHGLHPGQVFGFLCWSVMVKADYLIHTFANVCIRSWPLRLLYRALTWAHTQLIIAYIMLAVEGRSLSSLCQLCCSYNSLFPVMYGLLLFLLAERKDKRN
Text: The effects of CF801 on GOAT activity were examined using a previously validated fluorescence-based assay, and in comparison with octanoyl-(Dap3)-ghrelin (1–5)–NH2, a well characterized GOAT inhibitor ([56], [63]). In this assay, membrane fractions from Sf9 insect cells were transfected to express either human (hGOAT) or mouse GOAT (mGOAT). Membranes fractions were thawed on ice and passed through an 18-gage needle 10 times enriched using a previously described method ([63]). […] Assays were analyzed by reverse phase HPLC with fluorescence detection. […] The trials were run in triplicate, with the % activity calculated as the integrated fluorescence intensity of the octanoylated product in the CF801 or octanoyl-(Dap3)-ghrelin (1–5)–NH2 run normalized by the same quantity for the vehicle-only reaction. […]
Figure 3 Percent activity of human GOAT (A) and mouse GOAT (B) (obtained from membrane fractions from Sf9 cells expressing hGOAT and mGOAT, resepectively) when exposed to CF801 and octanoyl-(Dap3)-ghrelin (1–5)–NH2 using a fluorescence-based microsomal assay. GSSFLCAcDan was used as an acylation target with fluorescence measured by reverse phase HPLC with fluorescence detection. […] All values are expressed as mean ± SEM. ***p < 0.001 compared to vehicle control.

[2] = EchoMRI carcass body composition; assay type: in vivo, male C57BL/6J mice
Experimental: (§1) A second cohort of mice (n = 30) was acclimated to the laboratory conditions for 1 week prior to the onset of the experiment. Mice were housed individually and their body weight and food intake was recorded daily for a baseline period of 10 days. Given that ghrelin augments the intake of preferred diets ([28]), all mice received ad libitum access to a high-fat diet (60% of calories coming from fat), in addition to regular chow, to determine if CF801 altered dietary preference. Both chow and high-fat diet pellets were provided daily to mice ad libitum in pre-weighed amounts. Mice were then assigned to four different groups: non-injected control (NIC; n = 7), vehicle (0.9% saline) (VEH; n = 7), low-dose CF801 (11 μmol⋅kg^−1 – LD; n = 8) and high-dose CF801 (22 μmol⋅kg^−1 – HD; n = 8). Each day at 09:00 hours, mice were weighed and their food intake (both chow and high-fat diet) was recorded. After this, mice received an intraperitoneal injection of either CF801 or saline (except for the non-injected controls). Following the 13-day treatment period, half the animals in each group were sacrificed, while the remaining mice were allowed to recover from treatment. […] At this point, the remaining mice were sacrificed. Carcasses from all animals were frozen and stored at −80°C until they were scanned for body composition analyses. Immediately prior to analysis, all carcasses were thawed to room temperature and weighed in order to obtain measures relative to total carcass mass. EchoMRI carcass analyses were performed at Health Canada, Nutrition Research Division facilities using the EchoMRI-1100 (System ID EF-020) scanner. Each carcass was analyzed separately and measurements of total fat mass, total lean mass, and total water weight were obtained for each mouse.
Given these changes in metabolic efficiency as well as the decrease in RER observed in the calorimetry experiment, we hypothesized that CF801 treatment would result in less accumulation of fat. To determine if this was the case, we conducted EchoMRI analyses on every animal post-mortem to identify differences in body composition as a function between groups. […] Furthermore, there was a significant treatment effect on the fat mass:total mass ratio following the recovery period [F(1,15) = 9.245, p < 0.05; partial eta^2 = 0.716].

[3] = Metabolic efficiency; assay type: in vivo, male C57BL/6J mice; conditions: treatment period
Experimental: as §1
Metabolic efficiency, defined as the amount of weight gained per calorie of energy consumed during a given time period, was calculated for each mouse during the baseline and treatment period. There were no differences in metabolic efficiency between any groups during the baseline period (data not shown).

## GSAFLSPEHQRK KRRQRRR-NH2 [CF801]
[1]
  mGOAT activity with CF801: no inhibition was seen; also recorded: no effect
[2]; 11 μmol⋅kg^−1 i.p., 2 weeks after last treatment, vs VEH and NIC, p < 0.05
  fat mass, low dose, after recovery: lower fat mass than mice in the VEH and NIC
[2]; 11 μmol⋅kg^−1 i.p., following recovery period, p < 0.05
  fat mass:lean mass ratio, low dose vs NIC: significantly lower fat mass:lean mass ratio
[2]; 11 μmol⋅kg^−1 i.p., following recovery period, p = 0.058
  fat mass:lean mass ratio, low dose vs VEH: tended to show a reduction in fat mass:lean mass ratio
[2]; 11 μmol⋅kg^−1 i.p., following recovery period, p's < 0.05, overall F(1,15) = 9.245, partial eta^2 = 0.716
  fat mass:total mass ratio, low dose vs NIC and VEH: significantly lower fat mass:total mass ratios
[2]; 11 μmol⋅kg^−1 i.p., vs VEH, end of treatment, p > 0.05
  fat mass, low dose, after treatment period: lower fat mass compared to VEH-treated animals, but this was not statistically significant
[2]; 22 μmol⋅kg^−1 i.p., 2 weeks after treatment terminated, F(1,15) = 15.18, p < 0.05, partial eta^2 = 0.805
  total fat mass, high dose, after recovery: this decrease was more evident
[2]; 22 μmol⋅kg^−1 i.p., following recovery period, p < 0.05, overall F(1,15) = 7.735, partial eta^2 = 0.678
  fat mass:lean mass ratio, high dose vs NIC and VEH: significantly lower fat mass:lean mass ratio
[2]; 22 μmol⋅kg^−1 i.p., following recovery period, p's < 0.05, overall F(1,15) = 9.245, partial eta^2 = 0.716
  fat mass:total mass ratio, high dose vs NIC and VEH: significantly lower fat mass:total mass ratios
[2]; 22 μmol⋅kg^−1 i.p., vs VEH, right after 13-day treatment, F(1,14) = 3.54, p > 0.05 as printed, partial eta^2 = 0.515
  total fat mass, high dose, after treatment period: significantly lower
[2]; 22 vs 11 μmol⋅kg^−1, following recovery period, p > 0.05
  fat mass:lean mass ratio, high dose vs low dose: no different than animals treated with LD CF801
[2]; between groups, p > 0.05
  lean body mass: no differences between the groups
  water mass: no differences between the groups
[3]; 11 μmol⋅kg^−1 i.p., p < 0.05, overall F(1,29) = 9.086, partial eta^2 = 0.522
  metabolic efficiency, low dose vs NIC and VEH: significantly lower metabolic efficiencies
[3]; 22 μmol⋅kg^−1 i.p., p < 0.05, overall F(1,29) = 9.086, partial eta^2 = 0.522
  metabolic efficiency, high dose vs NIC and VEH: significantly lower metabolic efficiencies
[3]; 22 vs 11 μmol⋅kg^−1 i.p., p > 0.05
  metabolic efficiency, high dose vs low dose: no different than animals receiving LD CF801
